Assay [1] deals with human colon cancer cell HT-29. The experiment in a line: Colon cancer cell HT-29 growth suppressive action in vitro. In kind it is cell-based. The note with it: 72 h, HT-29 cells, 3 days culture, SRB staining of cell protein. As to the method: A cell suspension (100 μL, 3,000 cells/well) of human colon cancer cell HT-29 (purchased from ATCC) was plated in a 96-well plate, and the cells were cultured at 37° C. in a 5% carbon dioxide gas incubator. The next day, 2-fold serial dilution of each test compound solution (diluted from maximum concentration 20 μM) (100 μL) was added, and the cells were cultured for 3 days. The culture medium containing the test compound was removed, and the cells were washed with phosphate buffer (PBS). A 50% trichloroacetic acid solution was added to the final concentration of 10% (v/v), and the mixture was stood overnight at 4° C., whereby the cells were fixed to the plate. Then, a dye SRB 0.4% (w/v) solution (dissolved in 1% acetic acid) was added at 50 μl/well, whereby the cell protein was fixed and stained (Skehan et al., Journal Of National Cancer Institute, vol. 82, pp. 1107-1112, 1990). The cells were washed 3 times with 1% acetic acid solution (200 μL/well), and 100 μL of an extract (10 mM Tris buffer) was added to extract the dye. The absorbance at an absorption wavelength […] was measured, and cell amount was measured as a protein amount. Taking the protein amount of the control group free of the test compound solution as 100%, the proportion of the residual protein amount of each treatment group was determined and the concentration of the compound necessary for suppressing the residual cell amount to 50% of the control (IC50 value) was calculated.

A further assay addresses T1, BRAF (V600E) kinase (Homo sapiens, UniProt P15056, V600E).
T1 construct: Flag (N); made in house; host or cells: SF-21 insect cells, recombinant baculovirus BAC-V600E
The experiment in a line: Determination of BRAF (V600E) kinase inhibitory activity. Format: biochemical. The following applies: 1.0 μM test compound; BRAF (V600E) enzyme, GST-MEK1 (K96R) substrate, [γ-32P]ATP; read-out: Inhibitory rate (%) at 1.0 μM. As to the method:
Human BRAF gene was cloned by PCR using human Testis cDNA library (Clontech) as a template. The primer used for PCR was prepared from base sequence (Genbank Accession No.: NM_004333) information of BRAF gene by adding a base sequence encoding flag peptide and a recognition sequence of the restriction enzyme to area encoding the BRAF kinase domain region, so that the protein contains an N-terminal. Flag. The primer base sequence is shown below.
The PCR reaction was conducted using Pyrobest (Takara Shuzo Co., Ltd). The obtained PCR product was electrophoresed on agarose gel (1%), the DNA fragment amplified by PCR was recovered from the gel, and then digested with restriction enzymes EcoRI and SalI. The DNA treated with the restriction enzymes was electrophoresed on agarose gel (1%), and the obtained DNA fragment was recovered. The recovered DNA fragment was ligated to plasmid pFASTBAC1 (Invitrogen) digested with restriction enzymes EcoRI and SalI to give expression plasmid pFB-BRAF, and the base sequence of the insert fragment was confirmed. In addition, mutation was introduced into V600E using a Quick change Site Directed Mutagenesis kit (Stratagene). The base sequences of the primers used are shown in the following.
The obtained plasmid was sequenced to confirm the introduction of mutation into V600E. The DNA was digested with restriction enzymes EcoRI and SalI, DNA treated with the restriction enzymes was electrophoresed on agarose gel (1%), and the obtained DNA fragment was recovered. The recovered DNA fragment was ligated to plasmid pFASTBAC1 (Invitrogen) digested with restriction enzymes EcoRI and SalI to give expression plasmid pFB-V600E.
Using BAC-TO-BAC Baculovirus Expression System (Invitrogen), virus stock BAC-V600E of recombinant baculovirus was prepared.
SF-21 cells were sown at 1×10^6 cells/mL to Sf-900II SFM medium (1 L, Invitrogen) containing 10% fetal bovine serum (Trace), 50 mg/L Gentamicin (Invitrogen) and 0.1% Pluronic F-68 (Invitrogen), and shaking culture was performed using a 2 L volume Erlenmeyer flask at 27° C., 100 rpm. After culturing for 24 hr, recombinant baculovirus BAC-V600E (13.4 mL) was added to the mixture, and the mixture was further cultured for 3 days. The culture medium was centrifuged at 2,000 rpm for 5 min to give virus-infected cells. The infected cells were washed with a phosphate buffered saline (Invitrogen), centrifuged under the same conditions, and the cells were preserved at −80° C. The cryopreserved cells were thawed in ice, suspended in buffer A (50 mM Tris buffer (30 mL, pH 7.4) containing 20% glycerol, 0.15 M NaCl) supplemented with Complete Protease Inhibitor (Boehringer), and ruptured 3 times with a Polytron homogenizer (Kinematica) at 20,000 rpm for 30 sec. The ruptured medium was clarified by centrifugation at 40,000 rpm for 30 min and filtered with a 0.45 μm filter. The filtrate was passed through a column packed with Anti-FLAG M2 Affinity Gel (4 mL, Sigma) at a flow rate of about 0.5 mL/min. The column was washed with buffer A, and eluted with buffer A containing 100 μg/mL of FLAG peptide. The buffer of this eluate was exchanged using NAP25 column (Amersham Bioscience) equilibrated with buffer A and the fractions were cryopreserved at −80° C.
A test compound (2.5 μL) dissolved in dimethyl sulfoxide (DMSO) was added to 37.5 μL of a reaction mixture (25 mM HEPES (pH 7.5), 10 mM magnesium acetate, 1 mM dithiothreitol) containing BRAF (V600E) enzyme (30 ng) and recombinant type protein GST-MEK1 (K96R) 250 ng, and the mixture was incubated at room temperature for 10 min. ATP solution (10 μL, 2.5 μM ATP, 0.1 μCi [γ-^32P]ATP) was added to the obtained mixture, and the mixture was reacted at room temperature for 20 min. The reaction was quenched by adding 50 μL of ice-cooled. 20% trichloroacetic acid (Wako Pure Chemical Industries, Ltd.) to the reaction mixture. […]

Some results are limits rather than exact numbers.

T1 sequence (P15056 457-717 V600E limits assumed): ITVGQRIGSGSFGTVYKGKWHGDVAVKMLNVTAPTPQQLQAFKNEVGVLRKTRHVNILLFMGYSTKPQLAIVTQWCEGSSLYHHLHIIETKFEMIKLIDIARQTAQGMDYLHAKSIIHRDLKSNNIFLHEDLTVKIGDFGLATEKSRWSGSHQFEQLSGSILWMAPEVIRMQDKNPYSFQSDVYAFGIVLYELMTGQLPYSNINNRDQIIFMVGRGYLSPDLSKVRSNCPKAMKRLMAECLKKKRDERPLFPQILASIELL

Regarding `CC(C)(C#N)c1cccc(C(=O)Nc2cccc(Oc3ccc4nc(NC(=O)C5CC5)sc4c3)c2)c1` [Example A12, 3-(1-cyano-1-methylethyl)-N-[3-({2-[(cyclopropylcarbonyl)amino]-1,3-benzothiazol-6-yl}oxy)phenyl]benzamide], the half-inhibitory concentration (IC50) in assay [1] is < 500 nM. Moreover, the inhibition at 1 µM at BRAF (V600E) kinase is 100%.

`CN1CCN(CC(=O)Nc2nc3ccc(Oc4cccc(NC(=O)c5cccc(C(C)(C)C#N)c5)c4)cc3s2)CC1` [Example A13, 3-(1-cyano-1-methylethyl)-N-{3-[(2-{[(4-methylpiperazin-1-yl)acetyl]amino}-1,3-benzothiazol-6-yl)oxy]phenyl}benzamide]: the half-inhibitory concentration (IC50) in assay [1] was < 500 nM.

Regarding `COc1ccc(NC(=O)c2cccc(C(C)(C)C#N)c2)cc1Oc1ccc2nc(NC(=O)CN3CCN(C)CC3)sc2c1` [Example A23, 3-(1-cyano-1-methylethyl)-N-{4-methoxy-3-[(2-{[(4-methylpiperazin-1-yl)acetyl]amino}-1,3-benzothiazol-6-yl)oxy]phenyl}benzamide], the half-inhibitory concentration (IC50) in assay [1] was < 500 nM.

As for `CC(=O)Nc1nc2ccc(Oc3cc(NC(=O)c4cccc(C(C)(C)C#N)c4Cl)ccc3F)cc2s1` [Example A47, N-(3-{[2-(acetylamino)-1,3-benzothiazol-6-yl]oxy}-4-fluorophenyl)-2-chloro-3-(1-cyano-1-methylethyl)benzamide], in assay [1], the half-inhibitory concentration (IC50) was < 500 nM.

Consider `CC(=O)Nc1nc2ccc(Oc3ccc(C)c(NC(=O)c4cccc(C(C)(C)C#N)c4)c3)cc2s1` [Example A49, N-(5-{[2-(acetylamino)-1,3-benzothiazol-6-yl]oxy}-2-methylphenyl)-3-(1-cyano-1-methylethyl)benzamide], for which the IC50 in assay [1] is < 500 nM.

These data come from patent publication US8324395B2, “Heterocyclic compound and use thereof” (Takeda Pharmaceutical Company Limited, priority 2007, dated 2012).
